Consider 20 molecules from patent US10280145B2 (Toray Industries, Inc., priority 2015, dated 2019).

The target in the experiment is T1, intracellular domain of DDR1 (Homo sapiens, UniProt Q08345).
T1 construct: the intracellular domain of DDR1 (in a final concentration of 5 ng/μL) (Carna Biosciences, Inc.); purchased Carna Biosciences, Inc
The experiment can be described thus: Evaluation of DDR1 inhibition activity with HTRF KinEASE-TK kit. To be noted: DDR1 intracellular domain 5 ng/μL, ATP 25 μm/L, TK Substrate-biotin 1000 nmol/L, room temperature, one hour. The experiment is classed as biochemical. On the procedure: The DDR1 inhibition activity in the compounds of Examples 1 to 80 was evaluated with HTRF® KinEASE-TK kit (Cisbio Bioassays).
Each test substance was dissolved in dimethyl sulfoxide and then used for the evaluation as described below. Moreover, each of test substances and reagents was diluted in the kinase buffer (Cisbio Bioassays) prepared by adding thereto MgCl2, MnCl2, DTT, and the Supplemental Enzyme buffer (Cisbio Bioassays) to concentrations of 5 mmol/L, 0.5 mmol/L, 0.25 mmol/L, and 50 nmol/L, respectively, and then used. Each test substance (in DMSO in a final concentration of 1%), the intracellular domain of DDR1 (in a final concentration of 5 ng/μL) (Carna Biosciences, Inc.), the phosphate donor ATP (in final concentration of 25 μm/L) (Sigma), and the substrate TK Substrate-biotin (in a final concentration of 1000 nmol/L) (Cisbio Bioassays) were added to a 384-well black plate (Corning) and allowed to react at room temperature for one hour. After completion of the reaction, the TK Antibody-Cryptate (Cisbio Bioassays) and the Streptavidin-XL665 (Cisbio Bioassays) were added thereto and allowed to react at room temperature for one hour. In addition, the plate was provided with a well to which a test substance was not added, and with a well to which a test substance and the intracellular domain of DDR1 were […].
The fluorescence intensity in each well was measured using a multi-label counter (Envision, PerkinElmer; excitation wavelength: 320 nm, measurement wavelength: 665 nm and 620 nm) to calculate a ratio (the fluorescence intensity at 665 nm/the fluorescence intensity at 620 nm). The inhibition rate (%) of a test substance at each concentration was calculated based on the formula below: Inhibition rate (%)=([the ratio obtained from the well containing no test substance]−[the ratio from a well containing a test substance])/([the ratio obtained from the well containing no test substance]−[the ratio obtained from the well containing no intracellular domain of DDR1 and no test substance])×100.
The calculated inhibition rates were fitted to a sigmoidal dose-response curve by regression analysis using the Prism 5.04 (GraphPad Software, Inc.) to calculate the IC50 value of the test substance.

T1 sequence (Q08345 439-913 limits assumed): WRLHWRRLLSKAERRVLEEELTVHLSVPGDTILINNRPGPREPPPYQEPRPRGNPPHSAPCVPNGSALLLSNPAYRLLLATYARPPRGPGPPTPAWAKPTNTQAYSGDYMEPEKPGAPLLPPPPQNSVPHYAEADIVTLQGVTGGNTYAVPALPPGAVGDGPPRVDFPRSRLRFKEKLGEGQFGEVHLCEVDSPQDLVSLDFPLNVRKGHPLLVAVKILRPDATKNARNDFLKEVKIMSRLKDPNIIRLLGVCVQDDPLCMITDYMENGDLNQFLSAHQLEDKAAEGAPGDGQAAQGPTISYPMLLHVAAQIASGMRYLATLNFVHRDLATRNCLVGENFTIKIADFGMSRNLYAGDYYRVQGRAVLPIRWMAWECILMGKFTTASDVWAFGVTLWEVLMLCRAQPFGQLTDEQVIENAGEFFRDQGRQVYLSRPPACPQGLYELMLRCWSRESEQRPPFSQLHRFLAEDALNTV

For orientation: IC50 means the concentration at which inhibition is half-maximal. A low value points to greater potency in that assay. The molecule `COc1c(CO)cc(OC(F)(F)F)cc1NC(=O)N[C@H]1CC[C@H](Oc2ccnc(-c3cccnc3)n2)CC1` [Example 79, 1-(3-(hydroxymethyl)-2-methoxy-5-(trifluoromethoxy)phenyl)-3-(trans-4-((2-(pyridin-3-yl)pyrimidin-4-yl)oxy)cyclohexyl)urea] yielded an IC50 of 22.8 nM.
Regarding `COc1ccc(S(F)(F)(F)(F)F)cc1NC(=O)N[C@H]1CC[C@H](Oc2ncccn2)CC1` [Example 10, 1-(2-methoxy-5-(pentafluorosulfanyl)phenyl)-3-(trans-4-(pyrimidin-2-yloxy)cyclohexyl)urea], half-maximal inhibition (IC50) was put at 167 nM.
`O=C(Nc1cc(C(F)(F)F)ccc1OC1COC1)N[C@H]1CC[C@H](Oc2ccncn2)CC1` [Example 66, 1-(2-(oxetan-3-yloxy)-5-(trifluoromethyl)phenyl)-3-(trans-4-(pyrimidin-4-yloxy)cyclohexyl)urea] returned an IC50 of 98.4 nM.
The molecule `O=C(Nc1cc(C(F)(F)F)ccc1OC1COC1)N[C@H]1CC[C@H](Oc2ccnc(N3CCOCC3)n2)CC1` [Example 7, 1-(trans-4-((2-morpholinopyrimidin-4-yl)oxy)cyclohexyl)-3-(2-(oxetan-3-yloxy)-5-(trifluoromethyl)phenyl)urea] yielded an IC50 of 111 nM.
Consider `COc1ccc(OC(F)(F)F)cc1NC(=O)N[C@H]1CC[C@H](COc2cccc(C(N)=O)c2)CC1` [Example 78, 3-((trans-4-(3-(2-methoxy-5-(trifluoromethoxy)phenyl)ureido)cyclohexyl)methoxy)benzamide], for which inhibition was half-maximal at 80.1 nM (IC50).
With `O=C(Nc1cc(C(F)(F)F)ccc1OC1COC1)N[C@H]1CC[C@H](Oc2ccnc(-c3cccnc3)n2)CC1` [Example 38, 1-(2-(oxetan-3-yloxy)-5-(trifluoromethyl)phenyl)-3-(trans-4-((2-(pyridin-3-yl)pyrimidin-4-yl)oxy)cyclohexyl)urea], it took 61 nM to reach half-maximal inhibition (IC50).
Turning to “1-(2-(oxetan-3-yloxy)-5-(trifluoromethoxy)phenyl)-3-(trans-4-(pyridin-4-ylmethoxy)cyclohexyl)urea [Example 30]”, the IC50 is 50.4 nM.
`CNc1cc(O[C@H]2CC[C@H](NC(=O)Nc3cc(C(F)(F)F)ccc3OC3CNC3)CC2)ncn1` [Example 42] had a half-inhibitory concentration (IC50) of 27.2 nM.
As to `CC(=O)N1CC(Oc2ccc(C(F)(F)F)cc2NC(=O)N[C@H]2CC[C@H](OCc3ccncc3)CC2)C1` [Example 33, 1-(2-((1-acetylazetidin-3-yl)oxy)-5-(trifluoromethyl)phenyl)-3-(trans-4-(pyridin-4-ylmethoxy)cyclohexyl)urea], the IC50 is 28 nM.
For the molecule `COc1c(CO)cc(C(F)(F)F)cc1NC(=O)N[C@H]1CC[C@H](Oc2ccnc(-c3cccnc3)n2)CC1` [Example 45, 1-(3-(hydroxymethyl)-2-methoxy-5-(trifluoromethyl)phenyl)-3-(trans-4-((2-(pyridin-3-yl)pyrimidin-4-yl)oxy)cyclohexyl)urea], inhibition was half-maximal at 33.8 nM (IC50).
For the molecule `Cc1ccc(C(F)(F)F)cc1NC(=O)N[C@H]1CC[C@H](OCc2ccncc2)CC1` [Example 25, 1-(2-methyl-5-(trifluoromethyl)phenyl)-3-(trans-4-(pyridin-4-ylmethoxy)cyclohexyl)urea], the IC50 was 421 nM.
Regarding `O=C(Nc1cc(C(F)(F)F)ccc1N1CCOCC1)N[C@H]1CC[C@H](Oc2ncccn2)CC1` [Example 57, 1-(2-morpholino-5-(trifluoromethyl)phenyl)-3-(trans-4-(pyrimidin-2-yloxy)cyclohexyl)urea], the IC50 worked out at 653 nM.
Molecule `O=C1CN(c2ccc(C(F)(F)F)cc2NC(=O)N[C@H]2CC[C@H](Oc3ncccn3)CC2)CCN1` [Example 15, 1-(2-(3-oxopiperazin-1-yl)-5-(trifluoromethyl)phenyl)-3-(trans-4-(pyrimidin-2-yloxy)cyclohexyl)urea] came in with an IC50 of 72.4 nM.
Take `O=C(Nc1cc(C(F)(F)F)ccc1OC1COC1)N[C@H]1CC[C@H](Oc2nccc(-c3cccnc3)n2)CC1` [Example 41, 1-(2-(oxetan-3-yloxy)-5-(trifluoromethyl)phenyl)-3-(trans-4-((4-(pyridin-3-yl)pyrimidin-2-yl)oxy)cyclohexyl)urea]: it took 45.6 nM to reach half-maximal inhibition (IC50).
`O=C(Nc1cc(C(F)(F)F)ccc1OC1CCNCC1)N[C@H]1CC[C@H](OCc2ccncc2)CC1` [Example 32, 1-(2-(piperidin-4-yloxy)-5-(trifluoromethyl)phenyl)-3-(trans-4-(pyridin-4-ylmethoxy)cyclohexyl)urea]: the midpoint of inhibition, the IC50, lay at 10 nM.
Regarding `COc1ccc(C(F)(F)F)cc1NC(=O)N[C@H]1CC[C@H](OCc2cccnc2)CC1` [Example 69, 1-(2-methoxy-5-(trifluoromethyl)phenyl)-3-(trans-4-(pyridin-3-ylmethoxy)cyclohexyl)urea], the IC50 came out at 17.2 nM.
The value for `O=C(Nc1cc(C(F)(F)F)ccc1OC1COC1)N[C@H]1CC[C@H](Oc2ncccn2)CC1` [Example 13, 1-(2-(oxetan-3-yloxy)-5-(trifluoromethyl)phenyl)-3-(trans-4-(pyrimidin-2-yloxy)cyclohexyl)urea] was 57.6 nM; that for `CNc1nccc(O[C@H]2CC[C@H](NC(=O)Nc3cc(C(F)(F)F)cc(CO)c3OC)CC2)n1` [Example 65, 1-(3-(hydroxymethyl)-2-methoxy-5-(trifluoromethyl)phenyl)-3-(trans-4-((2-(methylamino)pyrimidin-4-yl)oxy)cyclohexyl)urea] was 42.1 nM.
The value for `O=C(Nc1cc(C(F)(F)F)ccc1OC1COC1)N[C@H]1CC[C@H](Oc2ccnc(NCCO)n2)CC1` [Example 63, 1-(trans-4-((2-((2-hydroxyethyl)amino)pyrimidin-4-yl)oxy)cyclohexyl)-3-(2-(oxetan-3-yloxy)-5-(trifluoromethyl)phenyl)urea] was 46.7 nM; that for `COc1ccc(S(F)(F)(F)(F)F)cc1NC(=O)N[C@H]1CC[C@H](OCc2ccncc2)CC1` [Example 26, 1-(2-methoxy-5-(pentafluorosulfanyl)phenyl)-3-(trans-4-(pyridin-4-ylmethoxy)cyclohexyl)urea] was 82.7 nM.
